Patent US10201532B2, “Compounds and their use” (ALLECRA THERAPEUTICS GMBH, priority 2010, dated 2019)

Tests used:
[1] = system: KPC-2 producing K. pneumoniae (ATCC BAA-1705); experiment: Synergistic broth micro-dilution MIC (checkerboard); format: cell-based, Klebsiella pneumoniae; conditions: for MIC of Cefepime in combination with BLI / MIC of Cefotaxime in combination with BLI / MIC of Ceftazidime in combination with BLI / MIC of Ceftobiprole in combination with BLI / MIC of Imipenem in combination with BLI / MIC of Meropenem in combination with BLI / MIC of Aztreonam in combination with BLI / MIC of Ertapenem in combination with BLI / MIC of Faropenem in combination with BLI: ATCC BAA-1705
[2] = biological target: crude KPC-3 enzyme extract (UniProt Q9F663, H272Y, species not given); experiment: β-Lactamase inhibitory assay with CENTA substrate; format: biochemical; conditions: also headed KPC2
Excerpt: (§1) The Compound-1 was subjected to β-lactamase inhibitory assay to determine IC50 and to compare that with the comparator BLI agents as described elsewhere (Bebrone et. al., Antimicrob. Agents. Chemother, 2001, 45(6): 1868-1871; Jamieson et. al, Antimicrob. Agents. Chemother, 2003, 47(5): 1652-1657). Briefly, enzyme extracts from KPC-2 producing and KPC-3 expressing bacterial gram negative strains were used to study the β-lactamase inhibitory activity and determination of IC50 using CENTA as the substrate for β-lactamase.

[3] = biological target: T1, crude KPC-2 enzyme extract (Klebsiella pneumoniae, UniProt Q9F663); experiment: β-Lactamase inhibitory assay with CENTA substrate; format: biochemical
T1 construct: enzyme extracts from KPC-2 producing and KPC-3 expressing bacterial gram negative strains were used; endogenous in cells; host or cells: KPC-2 producing gram-negative strain
Excerpt: as §1

[4] = system: KPC-3 expressing E. coli (J53 R6206); experiment: Synergistic broth micro-dilution MIC (checkerboard); format: cell-based, Escherichia coli

T1 sequence (Q9F663 25-293 limits assumed): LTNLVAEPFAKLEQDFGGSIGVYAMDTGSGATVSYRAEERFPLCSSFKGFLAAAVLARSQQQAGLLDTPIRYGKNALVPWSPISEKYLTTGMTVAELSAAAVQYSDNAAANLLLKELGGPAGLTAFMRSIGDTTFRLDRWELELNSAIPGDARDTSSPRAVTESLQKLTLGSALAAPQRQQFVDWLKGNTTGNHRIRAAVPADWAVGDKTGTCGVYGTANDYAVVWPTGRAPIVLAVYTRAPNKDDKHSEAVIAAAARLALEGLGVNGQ

Compound: CC1(C)[C@H](C(=O)O)N2C(=O)C[C@H]2S1(=O)=O [Sulbactam]
- MIC of Cefepime in combination with BLI ([1]; BLI at 2 μg/mL): >64 µg/mL
- MIC of Cefotaxime in combination with BLI ([1]; BLI at 2 μg/mL): >64 µg/mL
- MIC of Ceftazidime in combination with BLI ([1]; BLI at 2 μg/mL): >64 µg/mL
- MIC of Ceftobiprole in combination with BLI ([1]; BLI at 2 μg/mL): >64 µg/mL
- MIC of Imipenem in combination with BLI ([1]; BLI at 2 μg/mL): 16 to 32 µg/mL
- MIC of Meropenem in combination with BLI ([1]; BLI at 2 μg/mL): 32 µg/mL
- MIC of Aztreonam in combination with BLI ([1]; BLI at 4 μg/mL): >64 µg/mL
- MIC of Cefepime in combination with BLI ([1]; BLI at 4 μg/mL): ≥64 µg/mL
- MIC of Cefotaxime in combination with BLI ([1]; BLI at 4 μg/mL): >64 µg/mL
- MIC of Ceftazidime in combination with BLI ([1]; BLI at 4 μg/mL): >64 µg/mL
- MIC of Ceftobiprole in combination with BLI ([1]; BLI at 4 μg/mL): >64 µg/mL
- MIC of Ertapenem in combination with BLI ([1]; BLI at 4 μg/mL): >64 µg/mL
- MIC of Faropenem in combination with BLI ([1]; BLI at 4 μg/mL): >64 µg/mL
- MIC of Imipenem in combination with BLI ([1]; BLI at 4 μg/mL): 16 to 32 µg/mL
- MIC of Meropenem in combination with BLI ([1]; BLI at 4 μg/mL): 32 µg/mL
- MIC of Cefepime in combination with BLI ([1]; BLI at 8 μg/mL): 64 µg/mL
- MIC of Cefotaxime in combination with BLI ([1]; BLI at 8 μg/mL): 64 µg/mL
- MIC of Ceftazidime in combination with BLI ([1]; BLI at 8 μg/mL): >64 µg/mL
- MIC of Ceftobiprole in combination with BLI ([1]; BLI at 8 μg/mL): >64 µg/mL
- MIC of Ertapenem in combination with BLI ([1]; BLI at 8 μg/mL): >64 µg/mL
- MIC of Faropenem in combination with BLI ([1]; BLI at 8 μg/mL): >64 µg/mL
- MIC of Imipenem in combination with BLI ([1]; BLI at 8 μg/mL): 16 µg/mL
- MIC of Meropenem in combination with BLI ([1]; BLI at 8 μg/mL): 32 µg/mL
- MIC of Aztreonam in combination with BLI ([1]; BLI at 16 μg/mL): >64 µg/mL
- MIC of Cefepime in combination with BLI ([1]; BLI at 16 μg/mL): 64 µg/mL
- MIC of Cefotaxime in combination with BLI ([1]; BLI at 16 μg/mL): 32 µg/mL
- MIC of Ceftazidime in combination with BLI ([1]; BLI at 16 μg/mL): >64 µg/mL
- MIC of Ceftobiprole in combination with BLI ([1]; BLI at 16 μg/mL): >64 µg/mL
- MIC of Ertapenem in combination with BLI ([1]; BLI at 16 μg/mL): >64 µg/mL
- MIC of Faropenem in combination with BLI ([1]; BLI at 16 μg/mL): >64 µg/mL
- MIC of Imipenem in combination with BLI ([1]; BLI at 16 μg/mL): 8 µg/mL
- MIC of Meropenem in combination with BLI ([1]; BLI at 16 μg/mL): 32 µg/mL
- MIC of Aztreonam in combination with BLI ([1]; BLI at 64 μg/mL): >64 µg/mL
- MIC of Cefepime in combination with BLI ([1]; BLI at 64 μg/mL): 64 µg/mL
- MIC of Cefotaxime in combination with BLI ([1]; BLI at 64 μg/mL): 32 µg/mL
- MIC of Ceftazidime in combination with BLI ([1]; BLI at 64 μg/mL): 64 µg/mL
- MIC of Ceftobiprole in combination with BLI ([1]; BLI at 64 μg/mL): >64 µg/mL
- MIC of Ertapenem in combination with BLI ([1]; BLI at 64 μg/mL): 64 µg/mL
- MIC of Faropenem in combination with BLI ([1]; BLI at 64 μg/mL): >64 µg/mL
- MIC of Imipenem in combination with BLI ([1]; BLI at 64 μg/mL): 8 µg/mL
- MIC of Meropenem in combination with BLI ([1]; BLI at 64 μg/mL): 16 µg/mL
- MIC ([1]; Klebsiella pneumoniae, ATCCBAA1705, read-out: MIC of BLI alone): > 64 µg/mL
- IC50 [2]: 235 µM
- IC50 [3]: 1400 µM
- MIC of Cefepime in combination with BLI ([4]; BLI at 2 μg/mL): 16 µg/mL
- MIC of Cefotaxime in combination with BLI ([4]; BLI at 2 μg/mL): >32 µg/mL
- MIC of Ceftazidime in combination with BLI ([4]; BLI at 2 μg/mL): 32 µg/mL
- MIC of Ceftobiprole in combination with BLI ([4]; BLI at 2 μg/mL): 32 µg/mL
- MIC of Imipenem in combination with BLI ([4]; BLI at 2 μg/mL): 4 µg/mL
- MIC of Meropenem in combination with BLI ([4]; BLI at 2 μg/mL): 2 µg/mL
- MIC of Cefepime in combination with BLI ([4]; BLI at 4 μg/mL): 16 µg/mL
- MIC of Cefotaxime in combination with BLI ([4]; BLI at 4 μg/mL): 16 µg/mL
- MIC of Ceftazidime in combination with BLI ([4]; BLI at 4 μg/mL): 32 µg/mL
- MIC of Ceftobiprole in combination with BLI ([4]; BLI at 4 μg/mL): 32 µg/mL
- MIC of Imipenem in combination with BLI ([4]; BLI at 4 μg/mL): 2 µg/mL
- MIC of Meropenem in combination with BLI ([4]; BLI at 4 μg/mL): 1 µg/mL
- MIC of Cefepime in combination with BLI ([4]; BLI at 8 μg/mL): 8 µg/mL
- MIC of Cefotaxime in combination with BLI ([4]; BLI at 8 μg/mL): 8 µg/mL
- MIC of Ceftazidime in combination with BLI ([4]; BLI at 8 μg/mL): 32 µg/mL
- MIC of Ceftobiprole in combination with BLI ([4]; BLI at 8 μg/mL): 16 µg/mL
- MIC of Imipenem in combination with BLI ([4]; BLI at 8 μg/mL): 2 µg/mL
- MIC of Meropenem in combination with BLI ([4]; BLI at 8 μg/mL): 1 µg/mL
- MIC ([4]; Escherichia coli, read-out: MIC of BLI alone, BLI alone): > 8 µg/mL
